This is an account of results in US20230348426A1, “OXOPYRROLIDINE FPR2 AGONISTS” (Bristol-Myers Squibb Company, priority 2020, published 2023).

One may read the EC50 as the concentration at which the effect is half-maximal.

Where only a bound is given, the exact number is not on record here.

For one test, the target named is human FPR2 (Homo sapiens (Human), UniProt P25090). Description: FPR2 cyclic adenosine monophosphate (cAMP) assay. In kind it is cell-based. The note with it: CHO cells overexpressing human FPR2; forskolin 5 µM; inhibition of cAMP production; read-out: hFPR2 cAMP2 EC50. Summed up:
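Inhibition of forskolin-driven (5 µM) cAMP, with 200 µM IBMX, measured in human FPR2-expressing CHO cells, 2,000 per well, 30 min at room temperature; compounds tested 0.020 nM to 100 µM in 1% DMSO. HTRF 665/590 ratio converted to cAMP via calibration curve, then 4-parameter fit.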

For another test, the target named is human FPR1 (Homo sapiens (Human), UniProt P21462). In words: FPR1 cyclic adenosine monophosphate (cAMP) assay. It is filed as cell-based. As to conditions: CHO cells overexpressing human FPR1; forskolin 10 µM; inhibition of cAMP production; read-out: hFPR1 cAMP EC50. In short, it runs like this: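 Human FPR1-expressing CHO cells were used at 4,000 per well, with compound at 0.020 nM–100 µM in 1% DMSO. Potency came from a 4-parameter logistic fit.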
Sequence of human FPR1 (P21462 whole entry): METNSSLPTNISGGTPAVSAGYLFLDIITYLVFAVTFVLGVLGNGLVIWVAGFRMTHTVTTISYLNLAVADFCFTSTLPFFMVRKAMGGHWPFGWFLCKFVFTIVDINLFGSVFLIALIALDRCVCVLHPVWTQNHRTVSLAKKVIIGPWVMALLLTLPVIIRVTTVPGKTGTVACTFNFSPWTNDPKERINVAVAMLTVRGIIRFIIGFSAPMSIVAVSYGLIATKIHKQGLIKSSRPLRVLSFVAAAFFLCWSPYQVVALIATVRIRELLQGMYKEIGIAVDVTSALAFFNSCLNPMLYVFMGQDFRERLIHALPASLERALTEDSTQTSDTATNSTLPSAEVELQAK
Background: cAMP levels reflect the balance of adenylyl cyclase and phosphodiesterase activity.

Sequence of human FPR2 (P25090 whole entry): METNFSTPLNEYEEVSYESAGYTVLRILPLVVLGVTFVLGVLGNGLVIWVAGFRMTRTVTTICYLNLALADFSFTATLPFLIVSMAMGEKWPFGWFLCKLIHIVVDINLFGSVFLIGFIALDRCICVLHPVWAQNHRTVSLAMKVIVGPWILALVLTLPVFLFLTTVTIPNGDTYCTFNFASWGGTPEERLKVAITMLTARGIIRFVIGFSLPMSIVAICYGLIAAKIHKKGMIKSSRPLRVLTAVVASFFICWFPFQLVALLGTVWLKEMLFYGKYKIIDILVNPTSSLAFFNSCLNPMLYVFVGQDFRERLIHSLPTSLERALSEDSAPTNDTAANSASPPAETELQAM

As for `COc1ccc([C@@H]2CN(c3cccn(CC(OC)C(F)(F)F)c3=O)C(=O)[C@H]2NC(=O)c2ccc(OC(F)F)cc2)cc1` (some centres unmarked) [Example 416], the results for the 50% effective concentration (EC50) on human FPR2 and on human FPR1 were 1.7 nM and 1 nM, respectively.
As to `COc1cc(F)c([C@@H]2CN(c3cccn(CC(OC)C(F)(F)F)c3=O)C(=O)[C@H]2NC(=O)c2ccc(Cl)cc2)c(F)c1` (some centres unmarked) [Example 417], the figures for the EC50 at human FPR2 and at human FPR1 were 2.9 nM and 17 nM, respectively.
Regarding `COc1ccc([C@@H]2CN(c3cccn(CC(C)OC)c3=O)C(=O)[C@H]2NC(=O)c2ccc(OC(F)F)cc2)c(F)c1` (some centres unmarked) [Example 418], the EC50 was found to be 2.7 nM on human FPR2 and 4 nM on human FPR1.
Take `COc1cc(F)c([C@@H]2CN(c3nccc(NCCO)c3C(F)(F)F)C(=O)[C@H]2NC(=O)c2ccc(Cl)cc2)c(F)c1` [Example 419]: the EC50 on human FPR2 amounted to 4.8 nM; on human FPR1 it was 110 nM.
`COc1cc(F)c([C@@H]2CN(c3nccc(N4CCOCC4)c3C(F)(F)F)C(=O)[C@H]2NC(=O)c2ccc(Cl)cc2)c(F)c1` [Example 420]: the EC50 on human FPR2 was 7.3 nM; on human FPR1, 51 nM.
As to `COc1cc(F)c([C@@H]2CN(c3c(C)ccn(CC(F)F)c3=O)C(=O)[C@H]2NC(=O)c2ccc(Cl)cc2)c(F)c1` [Example 421], the EC50 on human FPR2 was determined as 3.3 nM; at human FPR1 it was 15 nM.
Regarding `COCCn1ccc(C)c(N2C[C@@H](c3c(F)cc(OC)cc3F)[C@H](NC(=O)c3ccc(Cl)cc3)C2=O)c1=O` [Example 422], the half-maximal effective concentration (EC50) at human FPR2 turned out to be 1.1 nM; on human FPR1, 3 nM.
As for `COCCNc1ccnc(N2C[C@@H](c3c(F)cc(OC)cc3F)[C@H](NC(=O)c3ccc(Cl)cc3)C2=O)c1C(F)(F)F` [Example 423], the EC50 on human FPR2 worked out at 4.7 nM; at human FPR1, 1100 nM.
With `CC(O)Cn1cccc(N2C[C@@H](c3ccc(Cl)cc3)[C@H](NC(=O)c3ccc(Cl)cc3)C2=O)c1=O` (some centres unmarked) [Example 424], the values for the 50% effective concentration (EC50) at human FPR2 and at human FPR1 were 2.2 nM and 11 nM, respectively.
Consider `COCC(CO)n1ccc(C)c(N2C[C@@H](c3c(F)cc(OC)cc3F)[C@H](NC(=O)c3ccc(OC(F)F)cc3)C2=O)c1=O` (some centres unmarked) [Example 426], for which the EC50 was 2.3 nM at human FPR2 and 4 nM at human FPR1.
In the case of `COCC(CO)n1ccc(C)c(N2C[C@@H](c3c(F)cc(OC)cc3F)[C@H](NC(=O)c3ccc(OC(F)(F)F)cc3)C2=O)c1=O` (some centres unmarked) [Example 427], the concentration giving a half-maximal response (EC50) at human FPR2 stood at 4.4 nM; on human FPR1, 2 nM.
In the case of `COCC(C(=O)N(C)C)n1cccc(N2C[C@@H](c3ccc(OC)cc3F)[C@H](NC(=O)c3ccc(OC(F)F)cc3)C2=O)c1=O` (some centres unmarked) [Example 428], the EC50 amounted to 9 nM on human FPR2 and 8 nM at human FPR1.
With `COc1cc(F)c([C@@H]2CN(c3c(C)ccn(CCC(F)(F)F)c3=O)C(=O)[C@H]2NC(=O)c2ccc(Cl)cc2)c(F)c1` [Example 430], the figures for the EC50 on human FPR2 and at human FPR1 were 3.3 nM and 5 nM, respectively.
The matching figures for `COc1ccnc(N2C(=O)[C@@H](NC(=O)c3ccc(Cl)cc3)[C@H](c3c(F)cc(OC)cc3F)[C@@H]2C)c1` [Example 432]: 9.1 nM and 3800 nM.
For `COc1ccc([C@@H]2CN(c3cccn(CC(OC)C(F)(F)F)c3=O)C(=O)[C@H]2NC(=O)c2ccc(OC(F)(F)F)cc2)cc1` (some centres unmarked) [Example 433], the EC50 on human FPR2 is 1.8 nM; on human FPR1, 1 nM.
Regarding `COc1ccc([C@@H]2CN(c3cccn(CC(C)O)c3=O)C(=O)[C@H]2NC(=O)c2ccc(OC(F)F)cc2)cc1` (some centres unmarked) [Example 434], the concentration for a half-maximal effect (EC50) on human FPR2 came to 4.4 nM; at human FPR1, 10 nM.
With `COc1ccc([C@@H]2CN(c3cccn(CC(C)O)c3=O)C(=O)[C@H]2NC(=O)c2ccc(OC(F)(F)F)cc2)c(F)c1` (some centres unmarked) [Example 435], the concentration giving a half-maximal response (EC50) on human FPR2 turned out to be 2.8 nM; at human FPR1, 4 nM.
`COc1ccc([C@@H]2CN(c3cccn(CC(C)O)c3=O)C(=O)[C@H]2NC(=O)c2ccc(OC(F)F)cc2)c(F)c1` (some centres unmarked) [Example 436]: the results for the EC50 at human FPR2 and on human FPR1 were less than 5 nM and 9 nM, respectively.
For the compound `COCC(CO)n1cccc(N2C[C@@H](c3ccc(OC)cc3F)[C@H](NC(=O)c3ccc(OC(F)(F)F)cc3)C2=O)c1=O` (some centres unmarked) [Example 437], the EC50 on human FPR2 and at human FPR1 was 1 nM throughout.
